Reference: US20240358692A1, “TREATMENT OF SCLERODERMA” (Aisa Pharma, Inc., priority 2023, published 2024)

Columns and labels:
participants with SSc-RP [1] = assay: Average pain score recorded during weekly RP attacks (11-point Likert scale); assay type: in vivo, human; conditions: Tadalafil 5 mg (n = 4); Table G
Excerpt: The absolute change in average pain score (11-point Likert scale) of weekly RP attacks from baseline to the end of each Dosing Period will be a secondary outcome variable. The sponsor-developed participant-informed diary will be used to record data. The average pain score of weekly RP attacks is defined as the total pain scores divided by total number of RP attacks within the last 7 days of each dosing period. Average of the last 7 days of screening assessments will be used as baseline for the analysis of all periods. The variable will be calculated similar to frequency data as before.

participants with SSc-RP [2] = assay: SHAQ - Standard Disability Index; assay type: in vivo, human; design: key to SHAQ Standard Disability Index, In-Clinic Visit (Day 12), Mean / SHAQ Standard Disability Index, In-Clinic Visit (Day 12), Median / SHAQ Standard Disability Index, Day 12, Mean / SHAQ Standard Disability Index, Day 12, Median: 0 = without any difficulty to 3 = unable to do; conditions: Tadalafil 5 mg
Excerpt: The standard, validated, patient reported outcome measures tool for SSc patients, the Scleroderma Health Assessment Questionnaire (SHAQ), will be used to assess the participant qualify of life. Details are attached in the Appendix. The participant quality of life will be scored, and a disability index calculated for each questionnaire completed by the patient at Screening and each in-clinic visit. The absolute change in participant quality of life from baseline to the end of each dosing period will be calculated similar to frequency data as before.
The SHAQ is used to calculate a Disability Index to assess the participant qualify of life. The eight categories assessed by the Disability Index are 1) dressing and grooming, 2) arising, 3) eating, 4) walking, 5) hygiene, 6) reach, 7) grip, and 8) common daily activities. For each of these categories, patients report the amount of difficulty they have in performing two or three specific activities.
There are four possible responses for the Disability Index questions: • Without any difficulty=0 • With some difficulty=1 • With much difficulty=2 • Unable to do=3 • The highest score reported by the patient for any component question of the eight categories determines the score for that category. • If a component question is left blank or the response is too ambiguous to assign a score, then the score for that category is determined by the remaining completed question(s). • If all component questions are blank or if more than one answer is given, then follow up with the respondent is required. • If the respondent's mark is between the response columns, then move it to the closest one. If it's directly between the two, move it to the higher one.
This question results in a new set of category scores that are computed by adjusting the score for each category, if necessary, based on the patient's use of an aid or device or assistance for that category. If either devices and/or help from another person are checked for a category, the score is set to “2”, unless the score is already “3” (i.e., scores of “0” or “1” are increased to “2”). For example, if the highest score for the dressing category is “1”, and the patient says they use a device for dressing, the computed category score would be “2”. The sum of the computed categories scores is then calculated and divided by the number of categories answered. This gives a score in the 0 to 3 range.

[3] = Day 12, PP Population Part A, sensitivity analysis

## CN1CC(=O)N2[C@H](c3ccc4c(c3)OCO4)c3[nH]c4ccccc4c3C[C@@H]2C1=O [Tadalafil]
Participants with SSc-RP [1]
  Average Pain Score Change From Baseline [Mean (SD)]: 0.37
Participants with SSc-RP [2]; [3]
  SHAQ Standard Disability Index, In-Clinic Visit (Day 12), Mean: 0.531
  SHAQ Standard Disability Index, In-Clinic Visit (Day 12), Median: 0.563
Participants with SSc-RP [2]; SSc patients, PP, Part A
  SHAQ Standard Disability Index, Change from Baseline, Max: 0.00
  SHAQ Standard Disability Index, Change from Baseline, Min: −0.13,
  SHAQ Standard Disability Index, Change from Baseline, Q1: −0.125,
  SHAQ Standard Disability Index, Change from Baseline, Q3: 0.000
  SHAQ Standard Disability Index, Day 12, Max: 1.00
  SHAQ Standard Disability Index, Day 12, Min: 0.00,
  SHAQ Standard Disability Index, Day 12, Q1: 0.250,
  SHAQ Standard Disability Index, Day 12, Q3: 0.813
  SHAQ Standard Disability Index, Percent Change from Baseline, Max: 0.0
  SHAQ Standard Disability Index, Percent Change from Baseline, Min: −16.7,
  SHAQ Standard Disability Index, Percent Change from Baseline, Q1: −16.67,
  SHAQ Standard Disability Index, Percent Change from Baseline, Q3: 0.00
